Key:
HbF [1] = conditions: human primary erythroid cells; cited from earlier work
HbF [2] = conditions: cited from earlier work
HBG1/2 = assay: Analysis of HbF gene expression by RNA-seq after CRISPR/Cas9 knockout of WIZ in mPB CD34+ cells; assay type: cell-based, human; conditions: WIZ KO vs scrambled gRNA control, 7 days erythroid differentiation, FIG. 1A
Experimental: Mobilized peripheral blood (mPB) CD34+ cells (AllCells, LLC) were maintained in StemSpan™ serum-free expansion media (SFEM) ([…] Technologies Inc.) supplemented with 50 ng/mL each of rhTPO, rhlL-6, rhFLT3L, rhSCF for 2-3 days prior to shRNA transduction or targeted ribonucleoprotein (RNP) electroporation targeting WIZ. All cytokines were obtained from Peprotech®, Inc. Cell cultures were maintained at 37° C. and 5% CO2 in a humidified tissue culture incubator.
Alt-R CRISPR-Cas9 crRNA and tracrRNA (5′-[…]-3′; SEQ ID NO: 7) were purchased from Integrated DNA Technologies, Inc. Equimolar tracrRNA was annealed with WIZ targeting crRNA (Table 3) in Tris buffer (10 mM, pH 7.5) by heating at 95° C. for 5 minutes using a polymerase chain reaction (PCR) machine (Bio-Rad) followed by cooling to room temperature on the benchtop. Subsequently, a ribonucleoprotein (RNP) complex was generated by mixing annealed tracrRNA:crRNA with 6 ug of Cas9 at 37° C. for 5 minutes in 1× buffer containing HEPES (100 mM), KCl (50 mM), MgCl2 (2.5 mM), glycerol (0.03%), DTT (1 mM) and Tris pH 7.5 (2 mM). […]
Two independent, targeted CRISPR/Cas9 knockout (KO) of WIZ were done using WIZ_6 and WIZ_18 gRNAs or a non-targeting scrambled gRNA negative control in mPB CD34+ HSCs. […] The quality of isolated RNA was determined before sequencing using Agilent RNA 6000 Pico Kit (Agilent, catalogue #5067-1513). […]

Compound | HbF induction ex vivo (HbF [1]) | HbF induction in vivo (HbF [2]) | HBG1/2 expression upon erythroid differentiation (HBG1/2)
Nc1cccc2c1CN(C1CCC(=O)NC1=O)C2=O (stereo not drawn) [lenalidomide] | induce HbF ex vivo | induce HbF | –
Nc1cccc2c1C(=O)N(C1CCC(=O)NC1=O)C2=O (stereo not drawn) [pomalidomide] | induce HbF ex vivo | induce HbF | –
WIZ_6: WIZ targeting crRNA/gRNA, AACATCTTTCGGGCCGTAGG, SEQ ID NO 9 (listed as DNA, chemistry not given here) | – | – | upregulation of fetal hemoglobin genes (HBG1/2)
WIZ_18: WIZ targeting crRNA/gRNA, AGTGGGTGCGGCACTTACAG, SEQ ID NO 14 (listed as DNA, chemistry not given here) | – | – | upregulation of fetal hemoglobin genes (HBG1/2)

Reference: US12103919B2, “3-(5-oxy)-1-oxoisoindolin-2-yl)piperidine-2,6-dione derivatives and uses thereof” (NOVARTIS AG, priority 2021, dated 2024)
